Here are results for six molecules from patent US6683047B1, “Method of inhibiting transcription utilizing nuclear receptors” (The Burnham Institute, priority 1990, dated 2004).

In assay [1] the test system is TPA induced collagenase promoter activity (TRα). Description: -73 Col CAT reporter in CV-1 cells, T3 dependent repression by TRα. It counts as cell-based. Here is the method: In addition, applicants have discovered that the thyroid hormone receptor, in the presence of Thyroid hormone, binds AP-1 through a protein/protein interaction and inhibits the transcription of AP-1 activated genes. Specifically, TRα represses TPA induced collagenase promoter activity in a T3 dependent fashion. The −73 Col CAT reporter gene was cotransfected into CV-1 cells with an expression vector for […]. Cells were grown in the presence of the indicated amounts of T3 and/or TPA.

The target in the next assay is T1, RARβ binding to RARE (Homo sapiens, UniProt P10826).
T1 construct: made in house; host or cells: in vitro translation (reticulocyte lysate)
T1 sequence (P10826 1-455): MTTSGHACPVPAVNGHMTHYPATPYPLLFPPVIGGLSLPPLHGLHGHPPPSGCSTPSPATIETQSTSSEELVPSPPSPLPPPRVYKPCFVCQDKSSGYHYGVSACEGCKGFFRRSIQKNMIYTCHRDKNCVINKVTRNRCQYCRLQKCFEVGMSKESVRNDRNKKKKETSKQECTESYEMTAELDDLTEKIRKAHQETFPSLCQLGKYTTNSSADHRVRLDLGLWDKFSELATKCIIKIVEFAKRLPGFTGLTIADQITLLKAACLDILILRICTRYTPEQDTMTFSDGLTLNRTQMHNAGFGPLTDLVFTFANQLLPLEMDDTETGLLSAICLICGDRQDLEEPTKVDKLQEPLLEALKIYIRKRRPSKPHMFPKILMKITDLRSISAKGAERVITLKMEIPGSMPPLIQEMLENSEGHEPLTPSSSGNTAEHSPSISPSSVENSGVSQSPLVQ
In words: Gel retardation assay, effect on RARβ binding to RARE. The note with it: bacterially produced cJun pre-incubated with RARβ. The protocol: In vitro synthesized RAR protein was incubated with ^32P-labelled DNA fragment containing one copy of RARE. The binding of RAR on RARE was analyzed by gel retardation assay. […] C represents the binding of unprogrammed reticulocyte lysate in FIG. 5. To test the effect of cJun protein on RAR binding, excess amount of bacterial expressed Jun protein was incubated with RAR at 37° C. for 15 minutes before the addition of DNA. When anti-cJun (a cJun) was used, it was incubated with Jun protein at room temperature for 45 minutes before mixing with RAR protein.
This inhibition was specific as it was prevented by pre-incubation of cJun with anti-Jun antibodies.

In the next assay the test system is collagenase AP-1 site. In words: Gel retardation assay, binding to DNA fragment containing the collagenase AP-1 site. The settings on record: in vitro synthesized protein, 32P-labelled fragment. Here is the method:
In vitro synthesized glucocorticoid receptor (GR) and retinoic acid receptor (RAR) were incubated with ^32P-labelled DNA fragment derived from −73 COL-CAT by Hind III and Bam HI digestion. Protein-DNA complex was analyzed by gel retardation assay. Control represents the binding of unprogrammed reticulocyte lysate.
Gel retardation experiments were carried out with a 60 bp DNA fragment containing the collagenase AP-1 site.

Assay [2] concerns the target T2, cJun binding to the AP-1 site (Homo sapiens, UniProt P05412).
T2 construct: made in house; host or cells: cell-free (in vitro) translation or bacteria
Description: Gel retardation assay, effect on cJun binding to the AP-1 site. The settings on record: one-fold or five-fold excess, 37° C. for 15 minutes. The protocol:
In vitro synthesized cJun protein was incubated with one-fold (1) or five-fold (5) excess of in vitro synthesized RARβ or RARγ protein at 37° C. for 15 minutes. The effect of RARβ or RARγ or cJun binding was analyzed by gel retardation assay.
The Inhibition of cJun binding to the AP-1 site was dependent on the amount of RARs used, and was also observed in response to pre-incubation with in vitro synthesized GR (FIG. 4). As shown for the GRs in Example VI, this in vitro inhibition of cJun binding was ligand independent. The inhibition of Jun binding activity is a specific effect of each receptor because pre-incubation of the cell-free translated RARβ with anti-RAR antibodies prevented this inhibition, while pre-incubation with anti-GR or preimmune serum had no effect. Likewise, the inhibitory activity of cell-free translated GR is inhibited by anti-GR antibodies, but not by anti-RAR or preimmune serum. […] We therefore investigated whether the binding of the heterodimers could also be inhibited by the RAR.

The subject of assay [3] is collagenase promoter lacking AP-1 site (-63Col-CAT). In words: -63Col-CAT reporter co-transfected with RARβ in HeLa cells. The settings on record: presence or absence of RA. The assay is classed as cell-based.
Assay [4] has as its system collagenase promoter AP-1 site (RARβ). In words: -73Col-CAT reporter co-transfected with RARβ expression vector in HeLa cells, TPA induced CAT activity. The assay is classed as cell-based. The protocol:
The −73 Col CAT reporter gene was cotransfected into HeLa with an expression vector for RARβ/ε. Cells were grown in the presence of the indicated amounts of RA and/or TPA.

T2 sequence (P05412 whole entry): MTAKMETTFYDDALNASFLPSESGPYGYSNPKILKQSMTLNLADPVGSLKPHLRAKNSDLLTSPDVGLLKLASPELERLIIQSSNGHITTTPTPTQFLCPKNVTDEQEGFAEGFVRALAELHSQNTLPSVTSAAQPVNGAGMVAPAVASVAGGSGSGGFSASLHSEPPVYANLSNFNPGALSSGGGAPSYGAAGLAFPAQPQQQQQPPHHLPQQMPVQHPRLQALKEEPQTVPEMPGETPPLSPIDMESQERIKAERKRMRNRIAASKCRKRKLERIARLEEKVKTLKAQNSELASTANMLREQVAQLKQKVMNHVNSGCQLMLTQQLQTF

As to `N[C@@H](Cc1cc(I)c(Oc2ccc(O)c(I)c2)c(I)c1)C(=O)O` [T3], the “repression of TPA collagenase promoter activity” value in assay [1] is “dependant on the concentration of T3”.
For “cJun: bacterially produced or in vitro translated cJun protein, AP-1 component”, the “inhibition of RARβ DNA binding activity on RARE” value with RARβ binding to RARE is reported as “inhibited its DNA binding activity in a concentration dependent manner”. The “binding to collagenase AP-1 site or synthetic AP-1 site” value in the assay on collagenase AP-1 site is “specific binding”.
Regarding “GR: in vitro synthesized glucocorticoid receptor”, the “inhibition of cJun binding to the AP-1 site” value (“inhibition of cJun binding” below) in assay [2] is on record as “also observed”. Also, in the assay with collagenase AP-1 site, the “binding to collagenase AP-1 site or synthetic AP-1 site” value is “did not bind”.
As for `CC1=C(/C=C/C(C)=C/C=C/C(C)=C/C(=O)O)C(C)(C)CCC1` [RA, retinoic acid], in assay [3], the “effect on -63Col-CAT activity” value was “no effect”. Besides, the “concentration required for maximal repression of TPA induced activity of -73 Col-CAT” value in assay [4] is given as 10^−6 M. Moreover, in assay [4] (Homo sapiens, read-out: half maximal inhibition of TPA induced activity of -73 Col-CAT by RARβ), the IC50 worked out at 1 nM.

B1: RARγ: in vitro synthesized (cell-free translated) retinoic acid receptor γ protein (protein, UniProt P13631 1-454, looked up)
Retinoic acid receptor gamma: MATNKERLFAAGALGPGSGYPGAGFPFAFPGALRGSPPFEMLSPSFRGLGQPDLPKEMASLSVETQSTSSEEMVPSSPSPPPPPRVYKPCFVCNDKSSGYHYGVSSCEGCKGFFRRSIQKNMVYTCHRDKNCIINKVTRNRCQYCRLQKCFEVGMSKEAVRNDRNKKKKEVKEEGSPDSYELSPQLEELITKVSKAHQETFPSLCQLGKYTTNSSADHRVQLDLGLWDKFSELATKCIIKIVEFAKRLPGFTGLSIADQITLLKAACLDILMLRICTRYTPEQDTMTFSDGLTLNRTQMHNAGFGPLTDLVFAFAGQLLPLEMDDTETGLLSAICLICGDRMDLEEPEKVDKLQEPLLEALRLYARRRRPSQPYMFPRMLMKITDLRGISTKGAERAITLKMEIPGPMPPLIREMLENPEMFEDDSSQPGPHPNASSEDEVPGGQGKGGLKSPA
In the case of B1, in assay [2], the “inhibition of cJun binding” value is recorded as “significant inhibition”.

B2: RARβ: in vitro synthesized (cell-free translated) retinoic acid receptor β protein (protein, UniProt P10826 1-455, looked up)
Retinoic acid receptor beta: MTTSGHACPVPAVNGHMTHYPATPYPLLFPPVIGGLSLPPLHGLHGHPPPSGCSTPSPATIETQSTSSEELVPSPPSPLPPPRVYKPCFVCQDKSSGYHYGVSACEGCKGFFRRSIQKNMIYTCHRDKNCVINKVTRNRCQYCRLQKCFEVGMSKESVRNDRNKKKKETSKQECTESYEMTAELDDLTEKIRKAHQETFPSLCQLGKYTTNSSADHRVRLDLGLWDKFSELATKCIIKIVEFAKRLPGFTGLTIADQITLLKAACLDILILRICTRYTPEQDTMTFSDGLTLNRTQMHNAGFGPLTDLVFTFANQLLPLEMDDTETGLLSAICLICGDRQDLEEPTKVDKLQEPLLEALKIYIRKRRPSKPHMFPKILMKITDLRSISAKGAERVITLKMEIPGSMPPLIQEMLENSEGHEPLTPSSSGNTAEHSPSISPSSVENSGVSQSPLVQ
For B2, the “inhibition of cJun binding” value in assay [2] is recorded as “significant inhibition”. Further, the “binding to collagenase AP-1 site or synthetic AP-1 site” value in the assay with collagenase AP-1 site is on record as “did not bind”.
